The values that follow come from patent US20020173491A1, “DAPD combination therapy with inosine monophosphate dehydrogenase inhibitor” (priority 2000, published 2002).

Molecules are shown by their SMILES. Like-named read-outs stand apart in the source and are kept apart here. Marks after values point to notes of the source that are not given here.

The subject of one assay is xxLAI strain of HIV-1. The experiment in a line: microbe, parasite or virus in culture. Format: cell-based. The note with it: for Fold difference in EC50, 0.1 μM MPA: control vs with 0.1 μM MPA; for Fold difference in EC50, 0.25 μM MPA: control vs with 0.25 μM MPA (fold decrease); for Fold difference in EC50, 1 μM RBV: control vs with 1 μM RBV; for Fold difference in EC50, 5 μM RBV: control vs with 5 μM RBV; for Fold difference in EC50, 10 μM RBV: control vs with 10 μM RBV; for Fold difference in EC50, 20 μM RBV: control vs with 20 μM RBV (fold decrease). The procedure:
(§1) Triplicate samples of compound were tested. MT2 cells were infected with xxLAI at a multiplicity of infection (MOI) of 0.03 for 3 hours at 37° C. in 5% CO2. The infected cells were plated at 3.0×10^4/well into a 96 well plated containing drug dilutions and incubated for 5 days at 37° C. in CO2. […] This method has been modified into a susceptibility assay and has been used in a variety of in vitro antiviral tests and is readily adaptable to any system with a lytic virus (Weislow, O. S., et. al. 1989). Using the absorption values of the cell controls as 100% protection and no drug, virus infected cells as 0% protection, a dose response curve is generated by plotting % protection on the Y axis and drug concentration on the X axis. From this curve EC50 values were determined.
(§2) Assays were performed in the MT2 cell line as described above in the XXT sensitivity assay section.
MPA was tested for activity against the xxLAI strain of HIV-1 in the laboratory adapted cell line MT2. Dilutions of MPA were made in cell culture media in a 96 well plate; the highest concentration tested was 1 μM. Triplicate samples of compound were tested. MT2 cells were infected with xxLAI at a multiplicity of infection (MOI) of 0.03 for 3 hours at 37° C. in 5% CO2. The infected cells were plated at 3.0×10^4/well into a 96 well plated containing drug dilutions and incubated for 5 days at 37° C. in CO2. The antiviral activity of MPA was determined using the XTT assay described above. This method has been modified into a susceptibility assay and has been used in a variety of in vitro antiviral tests and is readily adaptable to any system with a lytic virus (Weislow, O. S., et. al. 1989). Using the absorption values of the cell controls as 100% protection and no drug, virus infected cells as 0% protection, a dose response curve is generated by plotting % protection on the Y axis and drug concentration on the X axis. From this curve EC50 values were determined.
(§3) The concentrations of MPA used were 1, 0.5, 0.25, 0.1, and 0.01 μM. Assays were performed in the MT2 cell line as described in section 3.1.

The test system of the next assay is HIV-1 mutant K65R. In words: MT2/XTT combination assay, resistant virus K65R. Format: cell-based. The following applies: for EC50: Human immunodeficiency virus 1, K65R; for fold difference from WT: K65R. How it is done:
as §1, §2
The restraint strains analyzed included viruses created by site directed mutagenesis, K65R and L74V, as well as a recombinant virus containing mutations at positions 98S, 116Y, 151M and 215Y. The wild type backbone in which these mutants were created, xxLAI, was also analyzed for comparison. The concentrations of DAPD and DXG tested were as described in the above MT2/XTT combination assay section.
as §3
The restraint strains analyzed included viruses created by site directed mutagenesis, K65R and L74V, as well as a recombinant virus containing mutations at positions 98S, 116Y, 151M and 215Y. The wild type backbone in which these mutants were created, xxLAI, was also analyzed for comparison. The concentrations of DAPD and DXG tested were as described in section 4.1. MPA was tested in combination with DAPD and DXG at a fixed concentration of 0.25 μM.
(Tetrazolium dyes change colour on reduction, which living cells bring about.)

[1] abbreviates: Human immunodeficiency virus 1, MT2, read-out: Mean EC50, Control, MT2 cells, no MPA.
Setting [2] is: Human immunodeficiency virus 1, MT2, read-out: Mean EC50, Control, MT2 cells, no RBV.
Where [3] appears, read: read-out: Mean EC50, 0.01 μM MPA, MT2 cells, with 0.01 μM MPA.
Where [4] appears, read: read-out: Mean EC50, 0.1 μM MPA, MT2 cells, with 0.1 μM MPA.
Where [5] appears, read: read-out: Mean EC50, 0.25 μM MPA, MT2 cells, with 0.25 μM MPA.
Setting [6] is: read-out: Mean EC50, 1 μM RBV, MT2 cells, with 1 μM RBV.
Where [7] appears, read: read-out: Mean EC50, 5 μM RBV, MT2 cells, with 5 μM RBV.
[8] abbreviates: read-out: Mean EC50, 10 μM RBV, MT2 cells, with 10 μM RBV.
Setting [9] is: read-out: Mean EC50, 20 μM RBV, MT2 cells, with 20 μM RBV.

The term EC50 denotes the concentration that produces a half-maximal response. For `Nc1nc2c(ncn2C2COC(CO)O2)c(=O)[nH]1` (single isomer, unassigned; (-)) [DXG], the EC50 in the assay with xxLAI strain of HIV-1 (setting [1]) came out at 2100 nM; in the assay on xxLAI strain of HIV-1 (setting [2]) it was 2650 nM; in the assay with xxLAI strain of HIV-1 (setting [3]), 2500 nM; with xxLAI strain of HIV-1 (setting [4]), 600 nM; with xxLAI strain of HIV-1 (setting [5]) it was 200 nM; in the assay with xxLAI strain of HIV-1 (setting [6]), 2050 nM. In addition, the 50% effective concentration (EC50) in the assay with xxLAI strain of HIV-1 (setting [7]) came out at 580 nM; in the assay on xxLAI strain of HIV-1 (setting [8]), 500 nM; in the assay with xxLAI strain of HIV-1 (setting [9]) it was 220 nM; with HIV-1 mutant K65R (compound alone (Table 4)) it was 3900 nM; in the assay with HIV-1 mutant K65R (compound alone (Table 10)), 4000 nM. Also, the “Fold difference in EC50, 0.1 μM MPA” value in the assay on xxLAI strain of HIV-1 (MT2 cells) turned out to be 3.5 fold. In the assay with xxLAI strain of HIV-1 (MT2 cells), the “Fold difference in EC50, 0.25 μM MPA” value is recorded as 10.5 fold. Further, the “Fold difference in EC50, 1 μM RBV” value with xxLAI strain of HIV-1 (MT2 cells) is recorded as 1.29 fold. In addition, in the assay on xxLAI strain of HIV-1 (MT2 cells), the “Fold difference in EC50, 5 μM RBV” value was 4.57 fold. In addition, the “Fold difference in EC50, 10 μM RBV” value with xxLAI strain of HIV-1 (MT2 cells) is listed as 5.3 fold. Moreover, the “Fold difference in EC50, 20 μM RBV” value with xxLAI strain of HIV-1 (MT2 cells) came out at 12 fold. Moreover, the “fold difference from WT” value worked out at 5 fold with HIV-1 mutant K65R (compound alone (Table 4)) and 5.6 fold in the assay on HIV-1 mutant K65R (compound alone (Table 10)).

As for `Nc1nc(N)c2ncn(C3COC(CO)O3)c2n1` (single isomer, unassigned; (-)) [DAPD], the EC50 with xxLAI strain of HIV-1 (setting [1]) was determined as 20000 nM; with xxLAI strain of HIV-1 (setting [2]) it was 18500 nM; in the assay with xxLAI strain of HIV-1 (setting [3]), 22000 nM; in the assay on xxLAI strain of HIV-1 (setting [4]) it was 4900 nM; with xxLAI strain of HIV-1 (setting [5]), 1200 nM; in the assay on xxLAI strain of HIV-1 (setting [6]), 8200 nM. Further, the EC50 with xxLAI strain of HIV-1 (setting [7]) amounted to 2900 nM; in the assay on xxLAI strain of HIV-1 (setting [8]), 1600 nM; in the assay with xxLAI strain of HIV-1 (setting [9]) it was 1300 nM; in the assay with HIV-1 mutant K65R (compound alone (Table 4)), 43700 nM; with HIV-1 mutant K65R (compound alone (Table 10)) it was 41000 nM. The “Fold difference in EC50, 0.1 μM MPA” value in the assay on xxLAI strain of HIV-1 (MT2 cells) was 4.1 fold. Besides, the “Fold difference in EC50, 0.25 μM MPA” value with xxLAI strain of HIV-1 (MT2 cells) amounted to 16.7 fold. In the assay with xxLAI strain of HIV-1 (MT2 cells), the “Fold difference in EC50, 1 μM RBV” value was 2.25 fold. Further, the “Fold difference in EC50, 5 μM RBV” value with xxLAI strain of HIV-1 (MT2 cells) is recorded as 6.4 fold. Moreover, the “Fold difference in EC50, 10 μM RBV” value in the assay with xxLAI strain of HIV-1 (MT2 cells) stood at 11.56 fold. In the assay with xxLAI strain of HIV-1 (MT2 cells), the “Fold difference in EC50, 20 μM RBV” value came to 14.2 fold. Also, the “fold difference from WT” value in the assay on HIV-1 mutant K65R (compound alone (Table 4)) was “(5.5)^b fold”; in the assay with HIV-1 mutant K65R (compound alone (Table 10)), 6 fold.
